Source: US20050112573A1, “Method of detecting toxic substance” (priority 2001, published 2005)

Test system: yeast genes (level of expressed mRNA)
Assay: DNA chip analysis of expressed mRNA of yeast genes after 2 h culture with a toxic chemical substance
Type: cell-based, Saccharomyces cerevisiae S288C
Experimental: Yeast (Saccharomyces cerevtisiae S288C (α SUC2mal mel gap2 CUP1)) were cultured at 25° C. on YPD medium (yeast extract 1%, polypepton 2%, glucose 2%). One of toxic chemical substances was added to the cell at logarithmic growth phase, and the cell was further cultured for two hours. Cell was cultured without any chemical substance in the same condition, and was used as control. Concentrations of the chemical substances were defined to inhibit the growth of the yeast but not lead to death.
After the completion of cultivation, the culture was centrifuged to collect the cells. To the cells, sodium acetate buffer (50 mM sodium acetate, 10 mM EDTA, 1% SDS) was added, and the mixture was shaken at 65° C. for five minutes, followed by returning to room temperature, and obtaining the supernatant, which procedure was repeated two times. To the supernatant, ½ amount of a solution of phenol/chloroform was added, and the mixture was centrifuged to give a supernatant, which was added with an equal amount of chloroform, and the mixture was centrifuged to give a supernatant. To the supernatant, an equal amount of isopropanol containing 0.3 M sodium acetate was added, and the mixture was allowed to stand at room temperature for 30 minutes, after which the mixture was centrifuged to give a sediment of the whole RNAs. Seventy % ethanol was added to the sediment, and the mixture was again centrifuged to give a sediment, which was then dried and dissolved in water. mRNA was isolated from the whole RNAs as followings. In view of the fact that a poly A chain is attached to the 3′ terminus of mRNA, a polynucleotide having a poly T structure which was immobilized on the surface of latex beads was used to trap the mRNA, and then the mRNA was washed and eluted with spine column (Oligotex-dT30<Super>mRNA Purification Kit, Takara). Reverse transcription of the mRNA was conducted with a reverse transcriptase (Super Script II Reverse Transcriptase; catalogue No. 18064-014, GibcoBRL) using fluorescence-labeled nucleotides to give cDNAs that were introduced with Cy3-dUTP or Cy5-dUTP during the reverse transcription.
The labeled cDNAs were dissolved in TE buffer (10 mM Tris-HCl/1 mM EDTA, pH8.0), and the solution was dropped on the DNA chip containing the whole genes of yeast (DNA Chip Research Inc. Japan) so that the cDNAs were hybridized on the DNA chip at 65° C. for over 12 hours. The fluoresces intensity of the DNA chip was read with a scanner, and the ratio relative to the fluorescence intensity resulting from the absence of chemical substance was estimated as the following, which is shown in Tables 1 to 9: [formula]
In the Tables, “Intensity” indicated in the rightmost column is a value of the level of expressed mRNA of each gene in control cells as divided by the average level of the expressions of the whole genes.

For Oc1cc(Cl)c(Cl)cc1Cl [(6), 2,4,5-trichlorophenol], the “The level of expressed mRNA in the presence of chemical substance/The level of expressed mRNA in the absence of chemical substance” value (yeast gene YKL013C) was 1.9, the “The level of expressed mRNA in the presence of chemical substance/The level of expressed mRNA in the absence of chemical substance” value (yeast gene YKL039W) was 4.9 and the “The level of expressed mRNA in the presence of chemical substance/The level of expressed mRNA in the absence of chemical substance” value (yeast gene YKL041W) was 2.2. For the same compound, the “The level of expressed mRNA in the presence of chemical substance/The level of expressed mRNA in the absence of chemical substance” value (yeast gene YKL096W) was 0.6, the “The level of expressed mRNA in the presence of chemical substance/The level of expressed mRNA in the absence of chemical substance” value (yeast gene YKL165C) was 0.6 and the “The level of expressed mRNA in the presence of chemical substance/The level of expressed mRNA in the absence of chemical substance” value (yeast gene YKL193C) was 0.9. For the same compound, the “The level of expressed mRNA in the presence of chemical substance/The level of expressed mRNA in the absence of chemical substance” value (yeast gene YLR120C) was 1.9, the “The level of expressed mRNA in the presence of chemical substance/The level of expressed mRNA in the absence of chemical substance” value (yeast gene YLR136C) was 1.7 and the “The level of expressed mRNA in the presence of chemical substance/The level of expressed mRNA in the absence of chemical substance” value (yeast gene YLR178C) was 4.2. The “The level of expressed mRNA in the presence of chemical substance/The level of expressed mRNA in the absence of chemical substance” value (yeast gene YLR250W) was 1.1, the “The level of expressed mRNA in the presence of chemical substance/The level of expressed mRNA in the absence of chemical substance” value (yeast gene YLR327C) was 5.1 and the “The level of expressed mRNA in the presence of chemical substance/The level of expressed mRNA in the absence of chemical substance” value (yeast gene YLR356W) was 3.4. The “The level of expressed mRNA in the presence of chemical substance/The level of expressed mRNA in the absence of chemical substance” value (yeast gene YLR362W) was 0.8, the “The level of expressed mRNA in the presence of chemical substance/The level of expressed mRNA in the absence of chemical substance” value (yeast gene YLR391W) was 1.5 and the “The level of expressed mRNA in the presence of chemical substance/The level of expressed mRNA in the absence of chemical substance” value (yeast gene YLR429W) was 0.8. The “The level of expressed mRNA in the presence of chemical substance/The level of expressed mRNA in the absence of chemical substance” value (yeast gene YMR004W) was 0.5, the “The level of expressed mRNA in the presence of chemical substance/The level of expressed mRNA in the absence of chemical substance” value (yeast gene YMR094W) was 0.5 and the “The level of expressed mRNA in the presence of chemical substance/The level of expressed mRNA in the absence of chemical substance” value (yeast gene YMR104C) was 1.9. The “The level of expressed mRNA in the presence of chemical substance/The level of expressed mRNA in the absence of chemical substance” value (yeast gene YMR219W) was 0.8, the “The level of expressed mRNA in the presence of chemical substance/The level of expressed mRNA in the absence of chemical substance” value (yeast gene YMR226C) was 2.6 and the “The level of expressed mRNA in the presence of chemical substance/The level of expressed mRNA in the absence of chemical substance” value (yeast gene YMR275C) was 1.4. The “The level of expressed mRNA in the presence of chemical substance/The level of expressed mRNA in the absence of chemical substance” value (yeast gene YMR276W) was 0.8, the “The level of expressed mRNA in the presence of chemical substance/The level of expressed mRNA in the absence of chemical substance” value (yeast gene YMR314W) was 1.3 and the “The level of expressed mRNA in the presence of chemical substance/The level of expressed mRNA in the absence of chemical substance” value (yeast gene YNL006W) was 1.0. The “The level of expressed mRNA in the presence of chemical substance/The level of expressed mRNA in the absence of chemical substance” value (yeast gene YNL007C) was 0.6, the “The level of expressed mRNA in the presence of chemical substance/The level of expressed mRNA in the absence of chemical substance” value (yeast gene YNL093W) was 1.6 and the “The level of expressed mRNA in the presence of chemical substance/The level of expressed mRNA in the absence of chemical substance” value (yeast gene YNL333W) was 1.5. The “The level of expressed mRNA in the presence of chemical substance/The level of expressed mRNA in the absence of chemical substance” value (yeast gene YNR010W) was 1.3, the “The level of expressed mRNA in the presence of chemical substance/The level of expressed mRNA in the absence of chemical substance” value (yeast gene YNR069C) was 1.7 and the “The level of expressed mRNA in the presence of chemical substance/The level of expressed mRNA in the absence of chemical substance” value (yeast gene YOL013C) was 1.1. For the same compound, the “The level of expressed mRNA in the presence of chemical substance/The level of expressed mRNA in the absence of chemical substance” value (yeast gene YOL164W) was 1.2, the “The level of expressed mRNA in the presence of chemical substance/The level of expressed mRNA in the absence of chemical substance” value (yeast gene YOR036W) was 1.7 and the “The level of expressed mRNA in the presence of chemical substance/The level of expressed mRNA in the absence of chemical substance” value (yeast gene YOR117W) was 1.1. The “The level of expressed mRNA in the presence of chemical substance/The level of expressed mRNA in the absence of chemical substance” value (yeast gene YOR124C) was 0.9, the “The level of expressed mRNA in the presence of chemical substance/The level of expressed mRNA in the absence of chemical substance” value (yeast gene YOR132W) was 1.6 and the “The level of expressed mRNA in the presence of chemical substance/The level of expressed mRNA in the absence of chemical substance” value (yeast gene YOR157C) was 1.2. The “The level of expressed mRNA in the presence of chemical substance/The level of expressed mRNA in the absence of chemical substance” value (yeast gene YOR181W) was 0.9, the “The level of expressed mRNA in the presence of chemical substance/The level of expressed mRNA in the absence of chemical substance” value (yeast gene YOR185C) was 3.0 and the “The level of expressed mRNA in the presence of chemical substance/The level of expressed mRNA in the absence of chemical substance” value (yeast gene YOR198C) was 0.9. For the same compound, the “The level of expressed mRNA in the presence of chemical substance/The level of expressed mRNA in the absence of chemical substance” value (yeast gene YOR259C) was 0.8, the “The level of expressed mRNA in the presence of chemical substance/The level of expressed mRNA in the absence of chemical substance” value (yeast gene YOR261C) was 1.4 and the “The level of expressed mRNA in the presence of chemical substance/The level of expressed mRNA in the absence of chemical substance” value (yeast gene YOR288C) was 1.0. For the same compound, the “The level of expressed mRNA in the presence of chemical substance/The level of expressed mRNA in the absence of chemical substance” value (yeast gene YOR355W) was 1.6, the “The level of expressed mRNA in the presence of chemical substance/The level of expressed mRNA in the absence of chemical substance” value (yeast gene YOR383C) was 6.8 and the “The level of expressed mRNA in the presence of chemical substance/The level of expressed mRNA in the absence of chemical substance” value (yeast gene YPL089C) was 0.8. For the same compound, the “The level of expressed mRNA in the presence of chemical substance/The level of expressed mRNA in the absence of chemical substance” value (yeast gene YPL109C) was 1.2, the “The level of expressed mRNA in the presence of chemical substance/The level of expressed mRNA in the absence of chemical substance” value (yeast gene YPL149W) was 0.9 and the “The level of expressed mRNA in the presence of chemical substance/The level of expressed mRNA in the absence of chemical substance” value (yeast gene YPL154C) was 3.5. For the same compound, the “The level of expressed mRNA in the presence of chemical substance/The level of expressed mRNA in the absence of chemical substance” value (yeast gene YPR103W) was 1.2 and the “The level of expressed mRNA in the presence of chemical substance/The level of expressed mRNA in the absence of chemical substance” value (yeast gene YPR108W) was 1.5.
